Reference: patent publication CN104497008A, “取代噁唑烷酮类化合物及其使用方法和用途” (priority 2014, dated 2015)
Converted amounts (≈) assume the structure as drawn.

experiment: Solubility test of the compounds; assay type: physicochemical; conditions: water, 37 ℃, 24 h shaking, 40 rpm, HPLC; read-out: compound solubility

solubility at 24 h [µg/mL]	SMILES
230 (≈ 557 µM)	CN1CCc2nc(N3C[C@H](CNC(=O)c4ccc(Cl)s4)OC3=O)sc2C1 [实施例5, (S)-5-氯-N-((3-(5-甲基-4,5,6,7-四氢噻唑[5,4-c]吡啶-2-基)-2-氧代噁唑烷-5-基)甲基)噻吩-2-甲酰胺]
110 (≈ 250 µM)	CC(=O)N1CCc2sc(N3C[C@H](CNC(=O)c4ccc(Cl)s4)OC3=O)cc2C1 [实施例2, (S)-N-((3-(5-乙酰基-4,5,6,7-四氢噻吩并[3,2-c]吡啶-2-基)-2-氧代噁唑烷-5-基)甲基)-5-氯噻吩-2-甲酰胺]
220 (≈ 534 µM)	CN1CCc2cc(N3C[C@H](CNC(=O)c4ccc(Cl)s4)OC3=O)sc2C1 [实施例6]
150 (≈ 333 µM)	CN1CCc2nc(C(=O)NCC3COC(=O)N3C(=O)Nc3ccc(Cl)cn3)sc2C1 (centres unmarked) [实施例8, N-(5-氯吡啶-2-基)-4-((5-甲基-4,5,6,7-四氢噻唑并[5,4-c]吡啶-2-甲酰氨基)甲基)-2-氧代噁唑烷-3-甲酰胺]
130 (≈ 295 µM)	CC(=O)N1CCc2cc(N3C[C@H](CNC(=O)c4ccc(Cl)s4)OC3=O)sc2C1 [实施例4, (S)-N-((3-(6-乙酰基-4,5,6,7-四氢噻吩并[2,3-c]吡啶-2-基)-2-氧代噁唑烷-5-基)甲基)-5-氯噻吩-2-甲酰胺]
80 (≈ 187 µM)	O=C(NC[C@H]1CN(c2sc3ccccc3c2Cl)C(=O)O1)c1ccc(Cl)s1 [实施例7, (S)-5-氯-N-((3-(3-氯苯并[b]噻吩-2-基)-2-氧代噁唑烷-5-基)甲基)噻吩-2-甲酰胺]
260 (≈ 590 µM)	NC(=O)N1CCc2cc(N3C[C@H](CNC(=O)c4ccc(Cl)s4)OC3=O)sc2C1 [实施例3, (S)-2-(5-((5-氯噻吩-2-甲酰氨基)甲基)-2-氧代噁唑烷-3-基)-4,5-二氢噻吩并[2,3-c]吡啶-6(7H)-甲酰胺]
240 (≈ 544 µM)	NC(=O)N1CCc2sc(N3C[C@H](CNC(=O)c4ccc(Cl)s4)OC3=O)cc2C1 [实施例1, (S)-2-(5-((5-氯噻吩-2-甲酰氨基)甲基)-2-氧代噁唑烷-3-基)-6,7-二氢噻吩并[3,2-c]吡啶-5(4H)-甲酰胺]
